In ChEMBL document CHEMBL1201862, “PubChem BioAssay data set” (2004):
Active and inactive are the calls of the source.

Key:
[1] = target: Lysine-specific demethylase 4C (Homo sapiens, UniProt Q9H3R0); assay: GASC-1 (JMJD2C) histone demethylase inhibitors, dose response, biochemical, DELFIA europium, cherry-picked samples (AID 488835); assay type: functional
[2] = control 3'UTR Renilla luciferase suppression, dose response, counter-screen for Shn3 inhibitor project, cell-based, Clone20-Shn3RL, cherry-picked (AID 624133); assay type: functional
[3] = tested on: Streptococcus sp. 'group A'; assay: growth inhibition of control SK(-) GAS strain, dose response, counter-screen for streptokinase expression inhibitor project, luminescence, kanamycin, BacTiterGlo, confirmation (AID 1900); assay type: functional, organism-based
Vero [4] = assay: cells; assay type: functional; details: Chlorocebus sabaeus
Streptokinase A = target: T1, Streptokinase A (Streptococcus pyogenes serotype M1, UniProt P10520); assay: S. pyogenes streptokinase expression inhibitors, potency, dose response, plasminogen activation absorbance, OD405 (AID 1914); assay type: functional, Streptococcus pyogenes M1 GAS;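 further: secreted streptokinase activity via plasminogen activation per viability signal from cell pellet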
T1 sequence (P10520 whole entry): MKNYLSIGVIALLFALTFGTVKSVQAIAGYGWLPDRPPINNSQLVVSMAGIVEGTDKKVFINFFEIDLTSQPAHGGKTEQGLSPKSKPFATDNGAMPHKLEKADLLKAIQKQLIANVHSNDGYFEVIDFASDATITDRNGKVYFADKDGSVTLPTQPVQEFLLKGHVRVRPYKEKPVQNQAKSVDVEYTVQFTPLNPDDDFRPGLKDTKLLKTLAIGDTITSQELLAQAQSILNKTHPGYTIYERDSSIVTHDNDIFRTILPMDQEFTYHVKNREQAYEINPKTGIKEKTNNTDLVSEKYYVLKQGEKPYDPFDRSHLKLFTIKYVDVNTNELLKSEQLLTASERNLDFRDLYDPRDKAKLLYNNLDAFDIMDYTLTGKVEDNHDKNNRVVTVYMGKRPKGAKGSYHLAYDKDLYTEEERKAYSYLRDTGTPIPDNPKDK

Streptococcus = assay: Group A Streptococcus viability loss, dose response, counter-screen for streptokinase expression inhibitor project, luminescence, BacTiterGlo (AID 1915); assay type: functional, organism-based;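 further: potency for reduction of bacterial viability or growth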
Vero [5] = assay: cells; assay type: functional, cell-based; details: Chlorocebus sabaeus
[6] = Shn3 3'UTR reporter inhibitors, dose response, cell-based, Clone20 osteoblasts, firefly luciferase, cherry-picked (AID 624132); assay type: functional;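 further: firefly luciferase luminescence from reporter carrying the Shn3 3'UTR in osteoblasts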
[7] = microbe, parasite or virus in culture; assay type: functional; details: Mycobacterium tuberculosis
[8] = target: T2, Dual specificity protein phosphatase 3 (Homo sapiens, UniProt P51452); assay: VHR1 phosphatase inhibitors, biochemical (AID 1878)
Albumin = Albumin (Bos taurus, UniProt P02769); assay: Counterscreen for inhibitors of T-cell receptor (TCR)-CD3 interaction: Fluorescence-based biochemical high throughput dose response assay to identify inhibitors of T-cell receptor (TCR)-CD3 interaction using a TAMRA-labeled BSA probe.; assay type: functional
[9] = target: T3, Voltage-gated N-type calcium channel alpha-1B subunit/Amyloid beta A4 precursor protein-binding family A member 1 (Homo sapiens, UniProt Q00975+Q02410); assay type: protein assay
[10] = target: T4, Dual specificity protein phosphatase 6 (Rattus norvegicus, UniProt Q64346); assay: MKP-3 phosphatase inhibitors, primary screen, biochemical, rat enzyme, in vitro (AID 425)
T4 sequence (Q64346 whole entry): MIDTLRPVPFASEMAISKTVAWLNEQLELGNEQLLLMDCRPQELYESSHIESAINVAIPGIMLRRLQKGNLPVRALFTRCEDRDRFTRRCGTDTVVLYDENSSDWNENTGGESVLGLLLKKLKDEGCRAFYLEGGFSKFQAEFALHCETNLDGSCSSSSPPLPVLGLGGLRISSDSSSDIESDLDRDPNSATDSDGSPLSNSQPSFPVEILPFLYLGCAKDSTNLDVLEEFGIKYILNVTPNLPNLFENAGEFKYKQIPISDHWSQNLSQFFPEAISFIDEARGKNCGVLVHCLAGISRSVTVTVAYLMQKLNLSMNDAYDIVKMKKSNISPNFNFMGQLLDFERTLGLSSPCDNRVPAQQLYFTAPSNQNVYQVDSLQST

[11] = target: T2, Dual specificity protein phosphatase 3; assay: VHR1 phosphatase inhibitors, primary screen, biochemical, absorbance, uHTS (AID 1654)
[12] = target: T3, Voltage-gated N-type calcium channel alpha-1B subunit/Amyloid beta A4 precursor protein-binding family A member 1; assay type: protein assay; remark: listed apart in the source
[13] = target: T5, Short transient receptor potential channel 4 (Mus musculus, UniProt Q9QUQ5); assay: mouse TRPC4 channel inhibitors, dose response, cell-based, HEK293 TRPC4/mu-opioid, Fluo-4 calcium (AID 434942); assay type: functional;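 further: potency of inhibitors blocking the TRPC4 calcium response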
T5 sequence (Q9QUQ5 whole entry): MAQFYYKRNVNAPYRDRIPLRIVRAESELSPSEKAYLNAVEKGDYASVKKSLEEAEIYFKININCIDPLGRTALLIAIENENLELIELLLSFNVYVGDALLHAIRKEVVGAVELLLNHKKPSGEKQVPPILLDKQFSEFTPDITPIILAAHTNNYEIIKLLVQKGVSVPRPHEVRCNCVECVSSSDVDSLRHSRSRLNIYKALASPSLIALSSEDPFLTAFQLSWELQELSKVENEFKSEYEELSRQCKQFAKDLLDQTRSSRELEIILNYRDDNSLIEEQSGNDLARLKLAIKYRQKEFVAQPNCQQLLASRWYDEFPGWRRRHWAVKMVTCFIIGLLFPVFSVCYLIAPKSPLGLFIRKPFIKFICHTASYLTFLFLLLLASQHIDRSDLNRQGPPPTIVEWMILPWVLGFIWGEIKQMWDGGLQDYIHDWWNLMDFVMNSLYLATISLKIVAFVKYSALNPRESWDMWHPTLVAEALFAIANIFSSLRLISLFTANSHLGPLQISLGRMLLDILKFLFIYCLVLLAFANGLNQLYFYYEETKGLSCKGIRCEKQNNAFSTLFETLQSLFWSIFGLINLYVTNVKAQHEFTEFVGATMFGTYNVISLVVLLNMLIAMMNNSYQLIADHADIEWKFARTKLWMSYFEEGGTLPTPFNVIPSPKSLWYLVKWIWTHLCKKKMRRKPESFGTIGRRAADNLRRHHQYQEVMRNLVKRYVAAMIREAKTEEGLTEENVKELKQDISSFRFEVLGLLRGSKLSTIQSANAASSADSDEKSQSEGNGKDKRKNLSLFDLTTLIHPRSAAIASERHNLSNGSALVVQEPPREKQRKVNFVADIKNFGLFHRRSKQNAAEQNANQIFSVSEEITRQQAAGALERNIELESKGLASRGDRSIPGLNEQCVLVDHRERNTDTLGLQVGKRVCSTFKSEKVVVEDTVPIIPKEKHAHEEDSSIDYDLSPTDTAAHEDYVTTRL

[14] = target: T5, Short transient receptor potential channel 4; assay: mouse TRPC4 channel activators, dose response, cell-based, HEK293 TRPC4/mu-opioid, Fluo-4 calcium (AID 434937); assay type: functional
Cytochrome P450 3A4 = Cytochrome P450 3A4 (Homo sapiens, UniProt P08684);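 further: CYP3A4 tested as one member of a cytochrome P450 panel screen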
[15] = target: 5-hydroxytryptamine receptor 5A (Homo sapiens, UniProt P47898); assay: Counterscreen for agonists of OPRM1-OPRD1 heterodimerization: luminescence-based cell-based high throughput dose response assay to identify agonists of 5-hydroxytryptamine (serotonin) 5A receptor (HTR5A). [Related pubchem assays (depositor defined):AID504326, AID504355, AID504692, AID504904, AID504905]; assay type: functional
Cytochrome P450 2C19 = Cytochrome P450 2C19 (Homo sapiens, UniProt P33261); assay: Cytochrome panel assay with activity outcomes. Panel member name: p450-cyp2c19 Compounds with AC50 equal or less than 10 uM are considered active; assay type: functional; details: read-out: AC50
[16] = target: Delta-type opioid receptor (Homo sapiens, UniProt P41143); assay: Counterscreen for agonists of heterodimerization of the mu 1 (OPRM1) and delta 1 (OPRD1) opioid receptors: Luminescence-based cell-based high throughput dose response assay to identify agonists of OPRD1 homodimerization. [Related pubchem assays (depositor defined):AID504326, AID504355, AID504692, AID504904, AID504905]; assay type: functional
Mu-type opioid receptor = Mu-type opioid receptor (Homo sapiens, UniProt P35372); assay: Counterscreen for agonists of heterodimerization of the mu 1 (OPRM1) and delta 1 (OPRD1) opioid receptors: Luminescence-based cell-based high throughput dose response assay to identify agonists of OPRM1 homodimerization.; assay type: functional;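 further: U2OS cells expressing OPRM1 and beta-arrestin as split beta-galactosidase partners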
Mu-type opioid receptor, sequence (P35372 whole entry): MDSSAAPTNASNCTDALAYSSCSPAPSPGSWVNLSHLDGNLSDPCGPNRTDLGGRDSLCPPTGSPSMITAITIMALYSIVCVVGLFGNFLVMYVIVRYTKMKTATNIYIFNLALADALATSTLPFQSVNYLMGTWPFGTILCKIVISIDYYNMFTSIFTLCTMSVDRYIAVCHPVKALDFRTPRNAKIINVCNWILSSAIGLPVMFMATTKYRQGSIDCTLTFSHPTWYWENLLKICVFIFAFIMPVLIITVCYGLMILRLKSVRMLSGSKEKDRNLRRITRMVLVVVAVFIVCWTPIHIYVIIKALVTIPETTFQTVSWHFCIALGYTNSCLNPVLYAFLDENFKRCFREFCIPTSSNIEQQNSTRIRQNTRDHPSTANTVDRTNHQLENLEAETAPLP

T3 sequence (Q00975 whole entry): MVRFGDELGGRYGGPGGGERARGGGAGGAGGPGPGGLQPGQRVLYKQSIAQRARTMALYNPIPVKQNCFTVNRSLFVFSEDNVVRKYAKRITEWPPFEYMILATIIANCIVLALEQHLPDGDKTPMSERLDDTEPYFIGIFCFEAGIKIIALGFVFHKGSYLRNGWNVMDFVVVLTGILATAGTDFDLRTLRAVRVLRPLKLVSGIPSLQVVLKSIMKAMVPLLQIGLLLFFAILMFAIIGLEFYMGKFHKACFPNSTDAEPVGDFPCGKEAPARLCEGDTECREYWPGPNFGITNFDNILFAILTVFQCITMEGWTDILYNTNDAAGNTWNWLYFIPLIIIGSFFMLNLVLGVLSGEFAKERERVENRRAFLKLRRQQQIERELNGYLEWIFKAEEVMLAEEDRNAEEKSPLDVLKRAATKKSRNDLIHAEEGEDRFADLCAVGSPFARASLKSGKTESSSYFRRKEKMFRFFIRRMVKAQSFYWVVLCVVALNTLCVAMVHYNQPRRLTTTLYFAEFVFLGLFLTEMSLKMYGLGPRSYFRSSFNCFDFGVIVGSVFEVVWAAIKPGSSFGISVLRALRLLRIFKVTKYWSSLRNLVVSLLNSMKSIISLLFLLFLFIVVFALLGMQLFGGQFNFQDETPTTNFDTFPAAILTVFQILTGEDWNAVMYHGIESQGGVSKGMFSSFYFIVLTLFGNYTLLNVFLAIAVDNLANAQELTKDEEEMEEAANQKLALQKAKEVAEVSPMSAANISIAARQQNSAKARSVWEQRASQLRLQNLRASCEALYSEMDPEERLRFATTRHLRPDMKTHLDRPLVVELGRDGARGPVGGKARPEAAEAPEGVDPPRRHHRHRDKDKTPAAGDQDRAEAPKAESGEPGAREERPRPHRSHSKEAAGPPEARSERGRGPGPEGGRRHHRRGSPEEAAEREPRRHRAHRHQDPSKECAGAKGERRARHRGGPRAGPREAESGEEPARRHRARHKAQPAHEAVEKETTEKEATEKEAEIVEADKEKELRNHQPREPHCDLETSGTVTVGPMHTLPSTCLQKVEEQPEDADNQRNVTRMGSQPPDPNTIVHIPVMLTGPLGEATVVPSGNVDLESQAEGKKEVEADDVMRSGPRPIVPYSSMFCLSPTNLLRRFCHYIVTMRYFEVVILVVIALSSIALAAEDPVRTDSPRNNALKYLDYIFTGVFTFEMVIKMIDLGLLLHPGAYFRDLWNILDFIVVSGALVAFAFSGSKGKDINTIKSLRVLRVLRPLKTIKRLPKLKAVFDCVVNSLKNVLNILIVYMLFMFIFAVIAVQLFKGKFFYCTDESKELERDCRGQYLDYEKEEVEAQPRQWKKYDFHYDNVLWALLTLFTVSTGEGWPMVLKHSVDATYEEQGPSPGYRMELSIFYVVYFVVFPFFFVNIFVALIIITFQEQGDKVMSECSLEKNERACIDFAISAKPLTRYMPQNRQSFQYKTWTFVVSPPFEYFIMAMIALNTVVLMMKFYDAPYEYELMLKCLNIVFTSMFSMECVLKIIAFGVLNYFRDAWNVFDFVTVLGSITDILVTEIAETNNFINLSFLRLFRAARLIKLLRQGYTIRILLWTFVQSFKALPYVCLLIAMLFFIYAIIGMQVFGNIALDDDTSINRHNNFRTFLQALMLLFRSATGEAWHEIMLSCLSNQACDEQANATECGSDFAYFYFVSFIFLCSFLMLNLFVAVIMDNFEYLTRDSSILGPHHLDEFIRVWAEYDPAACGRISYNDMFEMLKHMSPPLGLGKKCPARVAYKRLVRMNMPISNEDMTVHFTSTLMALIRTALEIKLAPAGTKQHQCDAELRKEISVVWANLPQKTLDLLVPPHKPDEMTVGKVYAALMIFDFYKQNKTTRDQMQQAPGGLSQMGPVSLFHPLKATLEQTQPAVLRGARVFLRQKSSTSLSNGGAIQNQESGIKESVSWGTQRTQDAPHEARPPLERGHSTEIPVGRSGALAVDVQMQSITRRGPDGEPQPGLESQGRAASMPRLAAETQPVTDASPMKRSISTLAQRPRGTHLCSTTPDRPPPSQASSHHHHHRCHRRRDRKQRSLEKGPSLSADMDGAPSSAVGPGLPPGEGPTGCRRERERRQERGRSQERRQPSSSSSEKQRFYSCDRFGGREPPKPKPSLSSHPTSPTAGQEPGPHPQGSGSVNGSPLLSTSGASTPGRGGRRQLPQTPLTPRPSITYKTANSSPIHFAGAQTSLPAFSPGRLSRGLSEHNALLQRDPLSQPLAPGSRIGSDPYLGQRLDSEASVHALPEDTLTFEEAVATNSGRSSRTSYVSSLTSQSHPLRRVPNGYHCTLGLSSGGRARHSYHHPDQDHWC
T3 sequence (Q02410 whole entry): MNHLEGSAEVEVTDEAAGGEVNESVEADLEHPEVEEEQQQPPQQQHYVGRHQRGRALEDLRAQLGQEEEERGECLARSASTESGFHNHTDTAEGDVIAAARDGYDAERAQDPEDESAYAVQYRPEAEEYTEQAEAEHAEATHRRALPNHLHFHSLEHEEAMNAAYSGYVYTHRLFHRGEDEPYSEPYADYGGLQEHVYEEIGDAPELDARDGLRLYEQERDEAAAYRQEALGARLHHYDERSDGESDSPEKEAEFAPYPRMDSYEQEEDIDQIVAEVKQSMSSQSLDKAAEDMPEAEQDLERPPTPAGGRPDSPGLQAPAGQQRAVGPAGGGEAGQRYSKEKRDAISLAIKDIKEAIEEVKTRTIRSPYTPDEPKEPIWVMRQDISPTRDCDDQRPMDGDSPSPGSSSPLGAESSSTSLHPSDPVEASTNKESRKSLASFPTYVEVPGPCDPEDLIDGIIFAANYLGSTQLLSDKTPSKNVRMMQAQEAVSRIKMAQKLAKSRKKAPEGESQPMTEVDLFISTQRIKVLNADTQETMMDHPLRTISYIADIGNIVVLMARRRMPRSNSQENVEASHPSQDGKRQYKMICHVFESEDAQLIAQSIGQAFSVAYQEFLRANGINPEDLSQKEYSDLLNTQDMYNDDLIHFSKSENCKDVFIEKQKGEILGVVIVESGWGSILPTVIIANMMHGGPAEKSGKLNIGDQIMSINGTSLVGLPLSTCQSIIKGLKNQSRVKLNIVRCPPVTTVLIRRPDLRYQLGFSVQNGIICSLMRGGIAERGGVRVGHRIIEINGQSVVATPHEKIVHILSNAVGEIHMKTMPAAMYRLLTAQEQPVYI
T2 sequence (P51452 whole entry): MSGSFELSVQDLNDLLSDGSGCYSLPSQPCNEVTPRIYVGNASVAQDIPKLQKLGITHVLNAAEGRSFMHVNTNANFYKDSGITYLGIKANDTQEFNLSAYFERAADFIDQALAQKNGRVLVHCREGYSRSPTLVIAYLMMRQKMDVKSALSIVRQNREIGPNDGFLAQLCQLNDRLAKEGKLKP
Cytochrome P450 2C19, sequence (P33261 whole entry): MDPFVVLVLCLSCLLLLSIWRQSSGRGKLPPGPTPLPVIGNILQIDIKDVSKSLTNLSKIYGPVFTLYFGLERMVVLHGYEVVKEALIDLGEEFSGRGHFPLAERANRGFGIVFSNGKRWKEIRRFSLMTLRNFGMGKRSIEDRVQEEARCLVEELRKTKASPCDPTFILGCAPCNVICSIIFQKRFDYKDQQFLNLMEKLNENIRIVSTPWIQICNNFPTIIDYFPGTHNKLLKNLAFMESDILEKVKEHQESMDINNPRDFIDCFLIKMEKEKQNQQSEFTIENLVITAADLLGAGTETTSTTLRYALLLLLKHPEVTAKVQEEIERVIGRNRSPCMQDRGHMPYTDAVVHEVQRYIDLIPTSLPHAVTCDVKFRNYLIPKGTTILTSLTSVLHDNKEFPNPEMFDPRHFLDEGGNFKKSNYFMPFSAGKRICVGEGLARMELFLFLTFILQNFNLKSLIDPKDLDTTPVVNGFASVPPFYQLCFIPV
Delta-type opioid receptor, sequence (P41143 whole entry): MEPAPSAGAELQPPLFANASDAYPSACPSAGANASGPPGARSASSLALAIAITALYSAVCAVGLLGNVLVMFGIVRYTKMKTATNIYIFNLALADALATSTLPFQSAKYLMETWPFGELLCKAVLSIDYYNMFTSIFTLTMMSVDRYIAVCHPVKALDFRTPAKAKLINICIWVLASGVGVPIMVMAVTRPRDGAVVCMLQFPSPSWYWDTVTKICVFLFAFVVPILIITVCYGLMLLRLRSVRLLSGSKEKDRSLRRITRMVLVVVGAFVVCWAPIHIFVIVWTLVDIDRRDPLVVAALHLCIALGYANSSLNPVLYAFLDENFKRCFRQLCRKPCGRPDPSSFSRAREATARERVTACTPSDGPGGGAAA
5-hydroxytryptamine receptor 5A, sequence (P47898 whole entry): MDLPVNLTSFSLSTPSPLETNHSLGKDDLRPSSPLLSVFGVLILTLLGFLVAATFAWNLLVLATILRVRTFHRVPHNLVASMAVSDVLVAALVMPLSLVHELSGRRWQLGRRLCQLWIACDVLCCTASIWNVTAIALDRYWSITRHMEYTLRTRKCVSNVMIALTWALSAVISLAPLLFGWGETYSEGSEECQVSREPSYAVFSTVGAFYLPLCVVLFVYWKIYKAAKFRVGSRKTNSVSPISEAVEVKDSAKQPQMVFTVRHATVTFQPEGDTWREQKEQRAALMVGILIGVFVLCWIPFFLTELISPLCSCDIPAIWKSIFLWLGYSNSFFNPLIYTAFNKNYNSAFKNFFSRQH

Structure (SMILES): COc1cc2c(cc1OC)C(COc1ccc(F)cc1)NCC2 (configuration not stated)
- AC50 [1]: 25.2 µM (active)

Structure (SMILES): O=C(CSc1ccccn1)Nc1nonc1[N+](=O)[O-]
- AC50 [2]: 12.5 µM (active)
- EC50 [3]: 5.77 µM (active)
- CC50 (Vero [4]): 20.7 µM (active)
- EC50 (Streptokinase A): > 150 µM (not active)
- EC50 (Streptococcus): > 150 µM (not active)
- IC50 (Vero [5]): > 25 µM (active)
- AC50 [6]: 5 µM (active)
- CC50 [7]: 24.5 µM (active)

Structure (SMILES): Cc1cc(=O)oc2cc(OCC(=O)N/N=C/c3cc([N+](=O)[O-])ccc3O)ccc12
- IC50 [8]: 2.6 µM (active)
- IC50 (Albumin): > 94.1 µM (inactive)
- IC50 [9]: > 50 µM (inactive)
- IC50 [10]: 24 µM (active)
- IC50 [11]: 4.25 µM (active)
- IC50 [12]: > 56.8 µM (not active)

Structure (SMILES): CN1C2C=C(N(CCc3c[nH]c4ccccc34)C(=O)c3ccc(Cl)cc3)CC1CC2 (configuration not stated)
- EC50 [13]: 0.211 µM (active)
- EC50 [14]: 0.596 µM (active)
- AC50 (Cytochrome P450 3A4): 17.8 µM (inconclusive)
- EC50 [15]: > 92.5 µM (inactive)
- AC50 (Cytochrome P450 2C19): 5.01 µM (inconclusive)
- EC50 [16]: > 92.5 µM (inactive)
- EC50 (Mu-type opioid receptor): 47.9 µM (inactive)
